Measurements reported in article PMC6288363, “A Novel Selective JAK2 Inhibitor Identified Using Pharmacological Interactions” (Frontiers in Pharmacology, 2018).

Key:
JAK3 = target: T1, JAK3 (Homo sapiens, UniProt P52333); experiment: KINOMEscan bead-based competition Kd; assay type: binding
T1 sequence (P52333 1-1124): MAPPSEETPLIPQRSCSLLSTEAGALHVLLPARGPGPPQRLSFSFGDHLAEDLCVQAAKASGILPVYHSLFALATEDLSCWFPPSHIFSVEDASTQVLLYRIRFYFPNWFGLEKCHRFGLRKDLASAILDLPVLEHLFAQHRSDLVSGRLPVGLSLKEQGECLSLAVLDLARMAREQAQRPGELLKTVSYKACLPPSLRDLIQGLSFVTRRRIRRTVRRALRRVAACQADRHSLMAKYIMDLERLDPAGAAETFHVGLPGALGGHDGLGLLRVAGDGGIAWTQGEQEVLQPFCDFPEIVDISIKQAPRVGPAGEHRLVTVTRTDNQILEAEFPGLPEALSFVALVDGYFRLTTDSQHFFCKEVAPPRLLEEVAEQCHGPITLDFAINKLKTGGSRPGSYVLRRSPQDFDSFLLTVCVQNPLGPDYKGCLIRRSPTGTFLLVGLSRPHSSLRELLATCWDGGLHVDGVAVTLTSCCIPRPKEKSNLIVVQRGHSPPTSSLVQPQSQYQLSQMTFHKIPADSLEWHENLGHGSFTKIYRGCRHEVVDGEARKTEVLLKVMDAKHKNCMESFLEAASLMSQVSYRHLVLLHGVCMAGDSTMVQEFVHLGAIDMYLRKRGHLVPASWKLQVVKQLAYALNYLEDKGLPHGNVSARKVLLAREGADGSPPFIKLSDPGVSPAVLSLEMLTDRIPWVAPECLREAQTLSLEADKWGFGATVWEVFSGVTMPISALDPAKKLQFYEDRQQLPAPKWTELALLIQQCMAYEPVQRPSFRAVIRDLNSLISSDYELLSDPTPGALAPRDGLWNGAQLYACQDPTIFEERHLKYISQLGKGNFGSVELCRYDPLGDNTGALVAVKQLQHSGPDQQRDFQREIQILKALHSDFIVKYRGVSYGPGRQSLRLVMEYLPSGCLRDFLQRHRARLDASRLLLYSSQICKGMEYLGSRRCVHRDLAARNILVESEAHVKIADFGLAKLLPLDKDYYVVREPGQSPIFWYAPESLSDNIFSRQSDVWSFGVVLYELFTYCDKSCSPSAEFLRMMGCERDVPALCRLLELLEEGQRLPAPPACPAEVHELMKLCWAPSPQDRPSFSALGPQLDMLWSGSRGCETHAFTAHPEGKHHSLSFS

JAK2 = target: T2, JAK2 (Homo sapiens, UniProt O60674); experiment: KINOMEscan bead-based competition Kd; also Z'LYTE kinase assay, […] inhibition at […]; assay type: binding
T2 construct: JH1 domain
T2 sequence (O60674 840-1132 limits assumed): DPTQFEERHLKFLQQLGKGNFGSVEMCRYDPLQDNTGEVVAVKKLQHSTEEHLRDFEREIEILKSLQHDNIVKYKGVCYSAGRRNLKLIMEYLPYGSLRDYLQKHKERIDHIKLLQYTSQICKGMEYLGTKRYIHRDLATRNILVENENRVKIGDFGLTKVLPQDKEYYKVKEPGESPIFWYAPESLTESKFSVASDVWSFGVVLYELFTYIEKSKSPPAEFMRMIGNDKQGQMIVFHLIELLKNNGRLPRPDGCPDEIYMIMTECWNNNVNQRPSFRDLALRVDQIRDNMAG

CCN(CC)CC[C@H](CNc1ccnc2cc(Cl)ccc12)c1ccc(O)cc1 [NSC13626]
Kd (JAK3): 4.6 µM
Kd (JAK2): 6.6 µM
